From patent US4937242A, “1,4-dihydropyridine derivatives and pharmaceutical composition thereof” (Kyoto Pharmaceutical Industries, Ltd., priority 1987, dated 1990)
Converted amounts (≈) assume the structure as drawn. Structures can show the parent of a compound that is named as a salt.

Key:
[1] = system: spontaneously hypertensive rats; assay: Hypotensive activity in male spontaneously hypertensive rats (oral); format: in vivo, rat; settings: systolic pressure at tail vein, oral 10 mg/kg
Procedure: Hypotensive activity [Method] Male spontaneously hypertensive rats at the 12th to 16th week in age and presenting a systolic pressure of around 200 mmHg were used as experimental animals, and 3 to 8 animals were assigned to each group. The subject compound (indicated by the example number), in an aqueous solution or 5% gum arabic suspension, was orally administered in a dose of 10 mg/kg. At the 4th and 8th hours following the administration, the systolic pressure at tail vein of each rat was noninvasively measured by means of a sphygmomanometer (USM-105, Ueda Seisakusho, Japan). A group of rats administered the solvent alone was used as a control group.
Gum arabic or water was administered to rats of the control group.

Water solubility test = format: physicochemical; settings: powdered, 20°±5° C., within 30 minutes, read-out: Amount (ml) of water required to dissolve 1 g of the subject compounds (converted)
Procedure: The subject compounds (indicated by the example number), after being powdered, were placed in water and vigorously shaken at 20°±5° C. for 30 seconds a 5-minute intervals, and within 30 minutes, the amount of water required to dissolve 1 g of the compound (I) of the present invention therein was measured.

| solubility at 0.5 h (Water solubility test) [mg/mL] | Compound | Change in blood pressure, 4 hours after administration [1] [mmHg] | Change in blood pressure, 8 hours after administration [1] [mmHg] |
| --- | --- | --- | --- |
|  | COC(=O)C1=C(C)NC(C)=C(C(=O)OCC(C)(C)CN2CCN(CC=Cc3ccccc3)CC2)C1c1cccc([N+](=O)[O-])c1.Cl.Cl (centres unmarked) [Example 13, 2,2-Dimethyl-3-(4-cinnamyl-1-piperazinyl)propyl Methyl 1,4-Dihydro-2,6-dimethyl-4-(3-nitrophenyl)-3,5-pyridinedicarboxylate Dihydrochloride] | -69 | -77 |
| 500 | COC(=O)C1=C(C)NC(C)=C(C(=O)OCC(C)(C)CN2CCN(CCO)CC2)C1c1cccc([N+](=O)[O-])c1 (centres unmarked) [Example 15, 2,2-Dimethyl-3-[4-(2-hydroxyethyl)-1-piperazinyl]propyl Methyl 1,4-Dihydro-2,6-dimethyl-4-(3-nitrophenyl)-3,5-pyridinedicarboxylateDihydrochloride] | -52 | -47 |
|  | COC(=O)C1=C(C)NC(C)=C(C(=O)OCC(C)(C)CN2CCN(C(=O)C=Cc3ccccc3)CC2)C1c1cccc([N+](=O)[O-])c1 (centres unmarked) [Example 7] | -76 | -84 |
| 625 | CC=CCN1CCN(CC(C)(C)COC(=O)C2=C(C)NC(C)=C(C(=O)OC)C2c2cccc([N+](=O)[O-])c2)CC1.Cl.Cl (centres unmarked) [Example 20, 2,2-Dimethyl-3-[4-(2-butenyl)-1-piperazinyl]propyl Methyl 1,4-Dihydro-2,6-dimethyl-4-(3-nitrophenyl)-3,5-pyridinedicarboxylate Dihydrochloride] | -84 | -82 |
| 500 (≈ 837 mM) | COC(=O)C1=C(C)NC(C)=C(C(=O)OCC(C)(C)CN2CCN(CC(=O)N3CCCC3)CC2)C1c1cccc([N+](=O)[O-])c1 (centres unmarked) [Example 26] | -53 | -32 |
| 500 | C=CCN1CCN(CC(C)(C)COC(=O)C2=C(C)NC(C)=C(C(=O)OC)C2c2cccc([N+](=O)[O-])c2)CC1.Cl.Cl (centres unmarked) [Example 2, 3-(4-allyl-1-piperazinyl)-2,2-dimethylpropyl methyl 2,6-dimethyl-4-(m-nitrophenyl)-1,4-dihydropyridine-3,5-dicarboxylate dihydrochloride] | -81 | -104 |
|  | COC(=O)C1=C(C)NC(C)=C(C(=O)OCC(C)(C)CN2CCN(C(=O)Cc3ccccc3)CC2)C1c1cccc([N+](=O)[O-])c1 (centres unmarked) [Example 5] | -90 | -87 |
| 500 (≈ 897 mM) | CNC(=O)CN1CCN(CC(C)(C)COC(=O)C2=C(C)NC(C)=C(C(=O)OC)C2c2cccc([N+](=O)[O-])c2)CC1 (centres unmarked) [Example 27] | -83 | -60 |
| 500 | C#CCCCN1CCN(CC(C)(C)COC(=O)C2=C(C)NC(C)=C(C(=O)OC)C2c2cccc([N+](=O)[O-])c2)CC1.Cl.Cl (centres unmarked) [Example 21, 2,2-Dimethyl-3-[4-(4-pentynyl)-1-piperazinyl]propyl Methyl 1,4-Dihydro-2,6-dimethyl-4-(3-nitrophenyl)-3,5-pyridinedicarboxylate Dihydrochloride] | -112 | -98 |
| 500 (≈ 836 mM) | COC(=O)C1=C(C)NC(C)=C(C(=O)OCC(C)(C)CN2CCN(CCN3CCCCC3)CC2)C1c1cccc([N+](=O)[O-])c1 (centres unmarked) [Example 16] | -34 | -52 |
| 500 | COC(=O)C1=C(C)NC(C)=C(C(=O)OCC(C)(C)CN2CCN(CCC#N)CC2)C1c1cccc([N+](=O)[O-])c1 (centres unmarked) [Example 14, 2,2-Dimethyl-3-[4-(2-cyanoethyl)-1-piperazinyl]propyl Methyl 1,4-Dihydro-2,6-dimethyl-4-(3-nitrophenyl)-3,5-pyridinedicarboxylateDihydrochloride] | -43 | -88 |
| 500 (≈ 898 mM) | COC(=O)C1=C(C)NC(C)=C(C(=O)OCC(C)(C)CN2CCN(C(C)C(C)=O)CC2)C1c1cccc([N+](=O)[O-])c1 (centres unmarked) [Example 19] | -86 | -85 |
|  | COC(=O)C1=C(C)NC(C)=C(C(=O)OCC(C)(C)CN2CCN(C(C)=O)CC2)C1c1cccc([N+](=O)[O-])c1 (centres unmarked) [Example 8] | -56 | -90 |
|  | COC(=O)C1=C(C)NC(C)=C(C(=O)OCC(C)(C)CN2CCN(C(=O)c3ccccc3)CC2)C1c1cccc([N+](=O)[O-])c1.Cl (centres unmarked) [Example 6, 2,2-Dimethyl-3-(4-benzoyl-1-piperazinyl)propyl Methyl 1,4-Dihydro-2,6-dimethyl-4-(3-nitrophenyl)-3,5-pyridinedicarboxylate Hydrochloride] | -64 | -88 |
| 500 (≈ 953 mM) | C#CCN1CCN(CC(C)(C)COC(=O)C2=C(C)NC(C)=C(C(=O)OC)C2c2cccc([N+](=O)[O-])c2)CC1 (centres unmarked) [Example 12] | -70 | -102 |
| 500 (≈ 873 mM) | CCOC(=O)CN1CCN(CC(C)(C)COC(=O)C2=C(C)NC(C)=C(C(=O)OC)C2c2cccc([N+](=O)[O-])c2)CC1 (centres unmarked) [Example 25] |  |  |
| 6.25 (≈ 13 mM) | COC(=O)C1=C(C)NC(C)=C(C(=O)OCCN(C)Cc2ccccc2)C1c1cccc([N+](=O)[O-])c1 (centres unmarked) [Nicardipine, nicardipine, reference compound] | -29 | -22 |
| 312 (≈ 578 mM) | C=C(C)CN1CCN(CC(C)(C)COC(=O)C2=C(C)NC(C)=C(C(=O)OC)C2c2cccc([N+](=O)[O-])c2)CC1 (centres unmarked) [Example 17] | -112 | -107 |
| 500 | COC(=O)C1=C(C)NC(C)=C(C(=O)OCC(C)(C)CN2CCN(CC#N)CC2)C1c1cccc([N+](=O)[O-])c1.Cl.Cl (centres unmarked) [Example 23, 3-(4-Cyanomethyl-1-piperazinyl)-2,2-dimethylpropyl methyl 2,6-dimethyl-4-(m-nitrophenyl)-1,4-dihydropyridine-3,5-dicarboxylate dihydrochloride] | -104 | -82 |

| Compound | solubility at 0.5 h (Water solubility test) [mg/mL] | Change in blood pressure, 4 hours after administration [1] [mmHg] | Change in blood pressure, 8 hours after administration [1] [mmHg] |
| --- | --- | --- | --- |
| COC(=O)C1=C(C)NC(C)=C(C(=O)OCC(C)(C)CN2CCN(CCO[N+](=O)[O-])CC2)C1c1cccc([N+](=O)[O-])c1 (centres unmarked) [Example 24] | 500 (≈ 869 mM) | -91 | -69 |
